Literature values, collected in PMC3762478 (Bioorganic & medicinal chemistry letters, 2013).
Like-named read-outs stand apart in the source and are kept apart here.

How the values were obtained:
[1] = system: −1 receptor (sigma-1); conditions: guinea-pig brain membranes
[2] = system: −1 receptor (sigma-1); conditions: rat brain homogenates

**Q.** Which “selectivity over −2 receptor” value [1] does the source give for `CCCc1ccc2c(c1)sc(=O)n2CCN1CCCCCC1` [Compound 1] here?
**A.** Its value is “over 1000 fold”.

**Q.** What about the Ki ([1]; read-out: Ki for −1 receptor) of the same compound?
**A.** Its Ki is 0.56 nM.

**Q.** For `O=c1sc2cc(CCCF)ccc2n1CCN1CCCCCC1` [Compound 2], which “selectivity over −2 receptor” value [2] is on record?
**A.** Its value is > 100,000 fold.

**Q.** What about the Ki ([2]; read-out: Ki for −1 receptor) of the same compound?
**A.** The Ki was 0.0025 nM.
